In patent US6254882A, “Methods and compositions for treating pulmonary disorders using optically pure (S)--salmeterol” (Sepracor Inc., priority 1997, dated 2001):

What was measured:
[1] = tested on: isolated guinea pig right atria; assay: Chronotropic effect on isolated guinea pig right atria (atrial rate); set-up: species or system guinea pig (male Hartley); conditions: for EC50: Cavia porcellus, % of rate produced by 1 μM forskolin, tested up to 1000 nM, r(log-lin) = 0.9453-0.9968, read-out: EC50 Atrial Rate, determined by linear regression of percent maximum response
[2] = tested on: isolated guinea pig tracheal strips; assay: Relaxation of histamine-contracted isolated guinea pig tracheal strips; set-up: species or system guinea pig (male Hartley); conditions: for EC50: Cavia porcellus, % of maximum relaxation by 1 mM papaverine, tested up to 1000 nM, r(log-lin) = 0.9453-0.9968, (S)-salmeterol extrapolated from three data points, read-out: EC50 Tracheal Relaxation, determined by linear regression of percent maximum response
[3] = as described in the PDR, even by inhalation; cited from earlier work
human β1 AR = human β1 AR (Homo sapiens, UniProt P08588); assay: Competitive binding to human β1-adrenergic receptor ([125I]iodopindolol, Sf9 cell membranes); conditions: radioligand [125I]iodopindolol; read-out: Kd for radioligand binding to human β1 ARs
human β2 AR = human β2 AR (Homo sapiens, UniProt P07550); assay: Competitive binding to human β2-adrenergic receptor ([125I]iodopindolol, Sf9 cell membranes); conditions: radioligand [125I]iodopindolol; read-out: Kd for radioligand binding to human β2 ARs
Sequence of human β2 AR (P07550 whole entry): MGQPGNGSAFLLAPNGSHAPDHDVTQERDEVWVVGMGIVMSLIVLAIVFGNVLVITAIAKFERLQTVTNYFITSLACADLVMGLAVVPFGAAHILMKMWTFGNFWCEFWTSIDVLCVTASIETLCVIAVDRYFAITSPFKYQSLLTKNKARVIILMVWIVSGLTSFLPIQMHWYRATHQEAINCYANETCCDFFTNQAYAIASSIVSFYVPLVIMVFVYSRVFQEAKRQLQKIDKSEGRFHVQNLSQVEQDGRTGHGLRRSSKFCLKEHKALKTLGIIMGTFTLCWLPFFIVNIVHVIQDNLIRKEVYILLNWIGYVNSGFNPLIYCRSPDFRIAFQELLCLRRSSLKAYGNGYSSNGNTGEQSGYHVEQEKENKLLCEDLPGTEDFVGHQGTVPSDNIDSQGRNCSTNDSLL

Sequence of human β1 AR (P08588 whole entry): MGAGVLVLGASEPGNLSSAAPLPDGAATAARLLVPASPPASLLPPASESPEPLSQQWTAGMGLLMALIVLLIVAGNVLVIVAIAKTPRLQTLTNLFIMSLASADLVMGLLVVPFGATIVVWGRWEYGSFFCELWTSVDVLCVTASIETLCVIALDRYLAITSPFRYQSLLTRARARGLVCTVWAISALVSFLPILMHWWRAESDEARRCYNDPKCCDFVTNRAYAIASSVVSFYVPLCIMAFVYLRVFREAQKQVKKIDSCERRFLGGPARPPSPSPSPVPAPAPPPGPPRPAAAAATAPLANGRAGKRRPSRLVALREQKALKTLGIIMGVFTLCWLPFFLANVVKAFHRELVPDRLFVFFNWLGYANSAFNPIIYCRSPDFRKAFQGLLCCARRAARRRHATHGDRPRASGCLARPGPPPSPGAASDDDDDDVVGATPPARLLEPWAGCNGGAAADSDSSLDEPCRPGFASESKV

SMILES | EC50 [2] | EC50 [1] | also measured
C=C[C@@]1(C)CC(=O)[C@]2(O)[C@@]3(C)[C@@H](O)CCC(C)(C)[C@@H]3[C@H](O)[C@H](OC(C)=O)[C@@]2(C)O1 [forskolin] |  |  | rate of spontaneous contraction of right atria ([1]; 1 μM forskolin, basal roughly 140-170 bpm): 195-250 bpm
CC(C)(C)NCC(O)c1ccc(O)c(CO)c1 (racemic) [(RS)-Albuterol] | 673 nM | 272 nM | 
OCc1cc(C(O)CNCCCCCCOCCCCc2ccccc2)ccc1O (racemic) [(RS)-Salmeterol, 4-hydroxy-α^1 - [[[6(4-phenylbutoxy)-hexyl]amino]methyl]-1,3-benzenedimethanol] | 273 nM | 3520 nM | adverse effects [3]: tachycardia, palpitations, urticaria, angioedema, rash, bronchospasms, headache, tremors, nervousness, and paradoxical bronchospasms
OCc1cc([C@@H](O)CNCCCCCCOCCCCc2ccccc2)ccc1O [(R)-Salmeterol] | 149 nM | 1730 nM | 
CC(C)(C)NC[C@H](O)c1ccc(O)c(CO)c1 [(R)-Albuterol] | 747 nM | 177 nM | potency for tracheal relaxation relative to (S)-salmeterol ([2]; relative to (S)-salmeterol): approximately four
CC(C)NC[C@H](O)COc1cccc2[nH]cc(I)c12 [[^125 l] iodopindolol] |  |  | Kd (human β1 AR): 2 nM; Kd (human β2 AR): 0.02 nM
COc1ccc(Cc2nccc3cc(OC)c(OC)cc23)cc1OC [papaverine] |  |  | relaxation of histamine-contracted tracheal strips ([2]; 1 mM papaverine): complete relaxation
CC(C)(C)NC[C@@H](O)c1ccc(O)c(CO)c1 [(S)-Albuterol] | 100000 nM | > 10000 nM | 
OCc1cc([C@H](O)CNCCCCCCOCCCCc2ccccc2)ccc1O [(S)-Salmeterol, S enantiomer of 4-hydroxy-α^1 - [[[6(4-phenylbutoxy)-hexyl]amino]methyl]-1,3-benzenedimethanol] | 3150 nM |  | potency for tracheal relaxation compared with (S,S)-formoterol ([2]; extrapolated from three data points): equivalent in potency; efficacy with respect to tracheal relaxation ([2]; in words): full efficacy could be achieved; potency for tracheal relaxation compared with racemic formoterol or its (R,R)-enantiomer ([2]; in words): significantly less potent; effect on atrial rate compared with vehicle control ([1]; in words): essentially the same effect on atrial rate as the vehicle control
